Results: patent US20250171459A1, “2-METHYL-4',5'-DIHYDROSPIRO[PIPERIDINE-4,7'-THIENO[2,3-C]PYRAN] DERIVATIVES AS INHIBITORS OF APOL1 AND METHODS OF USING SAME” (Vertex Pharmaceuticals Incorporated, priority 2022, published 2025)

biological target: T1, APOL1 (Homo sapiens, UniProt O14791); experiment: MultiTox-Fluor Multiplex Cytotoxicity Assay in tet-inducible APOL1 T-REx-HEK293 cells (cell rescue, ratio of dead to live cells); type: cell-based; details: tet-inducible transgenic APOL1 T-REx-HEK293 cell lines, 50 ng/mL tet, 24 hours; read-out: IP50 (i.e., IC50 for cell proliferation)
T1 sequence (O14791 1-398 S342G/I384M): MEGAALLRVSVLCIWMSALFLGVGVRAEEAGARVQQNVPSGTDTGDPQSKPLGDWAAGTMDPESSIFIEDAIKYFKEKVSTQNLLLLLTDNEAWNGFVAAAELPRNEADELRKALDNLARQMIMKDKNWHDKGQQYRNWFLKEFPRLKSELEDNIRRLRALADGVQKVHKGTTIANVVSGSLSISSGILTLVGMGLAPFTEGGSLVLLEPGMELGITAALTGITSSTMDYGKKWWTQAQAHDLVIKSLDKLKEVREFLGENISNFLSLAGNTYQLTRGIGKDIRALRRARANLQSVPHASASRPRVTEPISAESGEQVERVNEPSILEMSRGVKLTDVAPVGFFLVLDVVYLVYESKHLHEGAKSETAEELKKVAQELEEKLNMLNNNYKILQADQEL
Summary of the method: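 T-REx-HEK293 cells with tet-inducible APOL1 were treated with compound (10 μM top, 10-point 3-fold dilution, duplicate) plus 50 ng/mL tetracycline for 24 h at 37° C, in DMEM with 2% tet-free FBS. MultiTox-Fluor protease signals gave a dead/live ratio, normalized to no tet (100% viability) and tet alone (0%).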

Row | SMILES | IC50 [nM]
1 | [2H]C(OCC)c1cc2c(s1)[C@]1(CCN(Cc3cnn(CCS(C)(=O)=O)c3)[C@@H](C)C1)OCC2 (stereo partly drawn) [Compound 1015, (2′S, 7R)-2-[deuterio(ethoxy)methyl]-2′-methyl-1′-[[1-(2-methylsulfonylethyl)pyrazol-4-yl]methyl]spiro[4,5-dihydrothieno[2,3-c]pyran-7,4′-piperidine]] | < 100
2 | C[C@H]1C[C@@]2(CCN1Cc1cnn(CC(N)=O)c1)OCCc1cc(Cl)sc12 [Compound 705] | 100 to 500
3 | CCc1cc2c(s1)CCO[C@@]21CCN(Cc2cn(CC(F)(F)C3(O)CCOCC3)nn2)[C@@H](C)C1 [Compound 122] | 100 to 500
4 | C[C@H]1C[C@@]2(CCN1Cc1cnn(CC3(O)CCC3)c1)OCCc1c2sc(C(F)(F)F)c1CO [Compound 948] | < 100
5 | CCc1cc2c(s1)CCOC21CCN(Cc2cn(CC(c3cccnc3)N3CCOCC3)nn2)C(C)C1 (stereo not shown) [Compound 92] | 500 to 1000
6 | Cc1c(Cl)sc2c1C(O)CO[C@@]21CCN(Cc2cnn(CCS(C)(=O)=O)c2)[C@@H](C)C1 (single isomer, unassigned) [Compound 859, (2′S, 7R)-2-chloro-2′,3-dimethyl-1′-[[1-(2-methylsulfonylethyl)pyrazol-4-yl]methyl]spiro[4,5-dihydrothieno[2,3-c]pyran-7,4′-piperidine]-4-ol] | < 100
7 | CCc1cc2c(s1)CCO[C@@]21CCN(Cc2cn([C@H]3C[C@H](S(C)(=O)=O)C3)nn2)[C@@H](C)C1 [Compound 18] | < 100
8 | CCc1cc2c(s1)CCO[C@@]21CCN([C@H]2C[C@@H](NC(=O)OC(C)(C)C)C2)[C@@H](C)C1 [Compound 298] | 500 to 1000
9 | CCc1cc2c(s1)CCOC21CCN(Cc2ccc(NC3(CO)CC3)nc2)CC1 [Compound 1070] | 100 to 500
10 | C[C@H]1C[C@@]2(CCN1Cc1ccccn1)OC[C@H](O)c1cc(Cl)sc12 [Compound 811] | 500 to 1000
11 | CCc1cc2c(s1)CCO[C@@]21CCN(Cc2cn(CC3(CO)CC3)nn2)[C@@H](C)C1 [Compound 150] | 100 to 500
12 | C[C@H]1C[C@@]2(CCN1Cc1cn3c(n1)CCC3)OC[C@H](O)c1cc(Cl)sc12 [Compound 786] | 500 to 1000
13 | C[C@H]1C[C@@]2(CCN1Cc1cn(CCS(C)(=O)=O)nn1)OCCc1c2sc(C(F)(F)F)c1Cl [Compound 1010, (2′S, 7R)-3-chloro-2′-methyl-1′-[[1-(2-methylsulfonylethyl)triazol-4-yl]methyl]-2-(trifluoromethyl)spiro[4,5-dihydrothieno[2,3-c]pyran-7,4′-piperidine]] | < 100
14 | Cc1cccc(CN2CC[C@]3(C[C@@H]2C)OC[C@H](O)c2cc(Cl)sc23)n1 [Compound 808] | 500 to 1000
15 | CCc1cc2c(s1)CCOC21CCN(Cc2cnn(C)c2)C(C)(C)C1 (stereo not shown) [Compound 498, 2-ethyl-2′,2′-dimethyl-1′-[(1-methylpyrazol-4-yl)methyl]spiro[6,7-dihydrothieno[3,2-c]pyran-4,4′-piperidine]] | 500 to 1000
16 | CCc1cc2c(s1)CCO[C@@]21CCN(CC2CN(C(=O)Cc3cnn(C)c3)C2)[C@@H](C)C1 [Compound 455] | 100 to 500
17 | CCc1cc2c(s1)CCO[C@@]21CCN(Cc2cn(CC(C)(C)C3(O)CCOCC3)nn2)[C@@H](C)C1 [Compound 111] | 100 to 500
18 | COc1cccc(CN2CC[C@]3(C[C@@H]2C)OC[C@H](O)c2cc(Cl)sc23)n1 [Compound 782] | 500 to 1000
19 | CCc1cc2c(s1)CCOC21CCN(Cc2cn(CC(=O)NCC(C)O)nn2)CC1 (stereo not shown) [Compound 1092] | 500 to 1000
20 | C[C@H]1C[C@@]2(CCN1C[C@H](O)C(N)=O)OCCc1sc(Cl)cc12 [Compound 508, (2S)-3-[(2′S,4R)-2-chloro-2′-methyl-spiro[6,7-dihydrothieno[3,2-c]pyran-4,4′-piperidine]-1′-yl]-2-hydroxy-propanamide] | 100 to 500
21 | C[C@H]1C[C@@]2(CCN1Cc1cccc(Cl)c1O)OCCc1c2sc(Cl)c1CO [Compound 712, 2-chloro-6-[[(2′S, 7R)-2-chloro-3-(hydroxymethyl)-2′-methyl-spiro[4,5-dihydrothieno[2,3-c]pyran-7,4′-piperidine]-1′-yl]methyl]phenol] | 500 to 1000
22 | CCc1cc2c(s1)CCO[C@@]21CCN(C[C@H]2C[C@@H](NC(=O)c3cn(C4CCOCC4)nn3)C2)[C@@H](C)C1 [Compound 321] | 100 to 500
23 | C[C@H]1C[C@@]2(CCN1Cc1cnn(CC3CCNC(=O)C3)c1)OCCc1c2sc(C(F)(F)F)c1CO (stereo partly shown) [Compound 917] | < 100
24 | C[C@H]1C[C@@]2(CCN1Cc1cnn(Cc3nnco3)c1)OCCc1c2sc(C(F)(F)F)c1CO [Compound 919] | < 100
25 | C[C@H]1C[C@@]2(CCN1CC1CC1)OCCc1cc(CC(F)F)sc12 [Compound 568] | < 100

Row | SMILES | IC50 [nM]
26 | CCc1cc2c(s1)CCO[C@@]21CCN(Cc2cn([C@H]3C[C@@H](S(C)(=O)=O)C3)nn2)[C@@H](C)C1 [Compound 19] | 100 to 500
27 | C[C@H]1C[C@@]2(CCN1Cc1cnn(CCS(C)(=O)=O)c1)OCCc1sc(CC(F)F)cc12 [Compound 523, (2′S,4R)-2-(2,2-difluoroethyl)-2′-methyl-1′-[[1-(2-methylsulfonylethyl)pyrazol-4-yl]methyl]spiro[6,7-dihydrothieno[3,2-c]pyran-4,4′-piperidine]] | < 100
28 | C[C@H]1C[C@@]2(CCN1Cc1cnn(C[C@H](O)C(C)(C)O)c1)OC[C@@H](O)c1cc(C(F)(F)F)sc12 [Compound 889, (2S)-1-[4-[[(2′S,4S,7R)-4-hydroxy-2′-methyl-2-(trifluoromethyl)spiro[4,5-dihydrothieno[2,3-c]pyran-7,4′-piperidine]-1′-yl]methyl]pyrazol-1-yl]-3-methyl-butane-2,3-diol] | < 100
29 | CCc1cc2c(s1)CCOC21CCN(Cc2ccc(N[C@H]3CC[C@H](O)CC3)nc2)CC1 [Compound 1067] | < 100
30 | CCc1cc2c(s1)CCO[C@@]21CCN(C[C@H]2C[C@@H](NC(=O)c3cnc4c(c3)CCC4)C2)[C@@H](C)C1 [Compound 316] | < 100
31 | C[C@H]1C[C@@]2(CCN1CCC(F)(F)F)OCCc1cc(CC(F)F)sc12 [Compound 582] | 500 to 1000
32 | CCc1cc2c(s1)CCO[C@@]21CCN(Cc2ncon2)[C@@H](C)C1 [Compound 293] | 500 to 1000
33 | CCc1cc2c(s1)CCO[C@@]21CCN(C[C@H]2C[C@@H](NC(=O)OCC3CC3)C2)[C@@H](C)C1 [Compound 378] | 100 to 500
34 | C[C@H]1C[C@@]2(CCN1Cc1cnn(CC(O)CC3(O)COC3)c1)OC[C@@H](O)c1cc(C(F)(F)F)sc12 (stereo partly shown) [Compound 975] | < 100
35 | C[C@H]1C[C@@]2(CCN1C[C@H](O)C(N)=O)OCCc1cc(C(F)(F)F)sc12 [Compound 867, (2S)-2-hydroxy-3-[(2′S,7R)-2′-methyl-2-(trifluoromethyl)spiro[4,5-dihydrothieno[2,3-c]pyran-7,4′-piperidine]-1′-yl]propanamide] | 100 to 500
36 | CCc1cc2c(s1)CCOC21CCN(Cc2cn(CC(O)C(C)(C)O)nn2)C(C)C1 (stereo not shown) [Compound 125] | < 100
37 | C[C@H]1C[C@@]2(CCN1Cc1ccc(S(C)(=O)=O)nc1)OCCc1c2sc(Cl)c1CO [Compound 734] | 100 to 500
38 | CCc1cc2c(s1)CCOC21CCN(Cc2cn(CCS(=O)(=O)CC3CC3)nn2)CC1 [Compound 1090] | 500 to 1000
39 | C[C@H]1C[C@@]2(CCN1Cc1cnn(CCS(C)(=O)=O)c1)OCC(O)c1c2sc(Cl)c1Cl (stereo partly drawn) [Compound 861, (2S,4R)-2′,3′-dichloro-2-methyl-1-((1-(2-(methylsulfonyl)ethyl)-1H-pyrazol-4-yl)methyl)-4′l3-spiro[piperidine-4,7′-thieno[3,2-d]pyran]-4′(5′H)-ol] | 100 to 500
40 | C[C@H]1CC2(CCN1Cc1cnn(CCS(C)(=O)=O)c1)OCCc1c2sc2ccccc12 (stereo partly drawn) [Compound 1023, (2′S)-2′-methyl-1′-((1-(2-(methylsulfonyl)ethyl)-1H-pyrazol-4-yl)methyl)-3,4-dihydrospiro[benzo[4,5]thieno[2,3-c]pyran-1,4′-piperidine]] | 500 to 1000
41 | CNC(=O)c1cccc(CN2CC[C@]3(C[C@@H]2C)OCCc2c3sc(Cl)c2CO)c1 [Compound 730] | 100 to 500
42 | CCc1cc2c(s1)CCO[C@@]21CCN(C[C@H]2C[C@@H](NS(=O)(=O)c3ccc(C#N)cc3)C2)[C@@H](C)C1 [Compound 391] | < 100
43 | CCc1cc2c(s1)CCO[C@@]21CCN(CC2CN(C(=O)c3ccncc3)C2)[C@@H](C)C1 [Compound 430] | < 100
44 | CCc1cc2c(s1)CCO[C@@]21CCN(CC2CN(C(=O)C3C4COCC43)C2)[C@@H](C)C1 (stereo partly shown) [Compound 451] | 100 to 500
45 | CCc1cc2c(s1)CCO[C@@]21CCN(Cc2cn(CCn3ccnc3C)nn2)[C@@H](C)C1 [Compound 68] | 100 to 500
46 | CCc1cc2c(s1)CCOC21CCN(Cc2cnc(NC(=O)COCCOC)s2)CC1 [Compound 1132] | 100 to 500
47 | CCc1cc2c(s1)CCO[C@@]21CCN(CC2CN(C(=O)COC)C2)[C@@H](C)C1 [Compound 436] | < 100
48 | COCCOCC(O)Cn1cc(CN2CC[C@]3(C[C@@H]2C)OCCc2c3sc(C(F)(F)F)c2CO)cn1 (stereo partly shown) [Compound 966] | < 100
49 | CCc1cc2c(s1)CCO[C@@]21CCN([C@@H]2CC[C@H](NC(=O)OC(C)(C)C)C2)[C@@H](C)C1 [Compound 295] | 100 to 500
